Patent US20260355161A1, “NOVEL HETEROCYCLYL-PHENYL-METHYLAMINE DERIVATIVES, PREPARATION METHOD THEREOF, AND USE THEREOF IN PREVENTING, ALLEVIATING, OR TREATING MULTIPLE SCLEROSIS” (Cureverse Incorporated, priority 2022, published 2026)

Legend:
[1] = system: S1P5; conditions: background art; cited from earlier work
[2] = target: T1, S1P1 (Homo sapiens, UniProt P21453); conditions: background art; cited from earlier work
[3] = background art; cited from earlier work
[4] = system: S1P3 receptor; conditions: background art; cited from earlier work
[5] = target: T1, S1P1; experiment: β-arrestin recruitment after S1P1 receptor activation, S1P1 overexpressing cell line (luminescence); conditions: based on the two EC50 values of Table 1

T1 sequence (P21453 whole entry): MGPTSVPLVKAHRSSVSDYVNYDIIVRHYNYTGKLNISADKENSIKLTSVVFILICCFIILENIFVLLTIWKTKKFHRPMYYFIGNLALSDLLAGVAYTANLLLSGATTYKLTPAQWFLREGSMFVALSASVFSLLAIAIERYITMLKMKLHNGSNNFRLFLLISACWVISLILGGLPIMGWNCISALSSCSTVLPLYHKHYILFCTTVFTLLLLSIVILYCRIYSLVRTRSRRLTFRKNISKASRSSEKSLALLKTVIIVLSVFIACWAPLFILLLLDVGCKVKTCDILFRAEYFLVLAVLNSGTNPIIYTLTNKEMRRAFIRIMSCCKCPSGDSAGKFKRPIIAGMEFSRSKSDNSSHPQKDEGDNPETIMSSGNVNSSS

Row | SMILES | activity against S1P5 [1] | activity against S1P1 [2] | bradycardia side effect [3] | activation of S1P3 [4] | S1P1 activity (overall, in words) [5]
1 | CCc1cc(/C(C)=N/OCc2ccc(C3CCCCC3)c(C(F)(F)F)c2)ccc1CN1CC(C(=O)O)C1 [BAF312] | excellent activity | excellent activity | bradycardia, a side effect of FTY720, still occurred | without activating S1P3 | –
2 | CC(C)Oc1ccc(-c2ncc(-c3ccc(CN4CC(C(=O)[O-])C4)cc3)[se]2)cc1Cl.[Na+] [Compound 13, Sodium 1-(4-(2-(3-chloro-4-isopropoxyphenyl)-1,3-selenazole-5-yl)benzyl)azetidine-3-carboxylate] | – | – | – | – | excellent activity
3 | CCCCCCCCc1ccc(CCC(N)(CO)CO)cc1 [fingolimod] | – | – | causes bradycardia | activation of the S1P3 receptor | –
